In publication PMC3328449, “Inhibition of Diacylglycerol–Sensitive TRPC Channels by Synthetic and Natural Steroids” (PLoS ONE, 2012):

Columns and labels:
[1] = Solubility in perfusate (remark); assay type: physicochemical; conditions: aortic ring experiments; higher concentrations could not be tested
human α1A-receptors = molecular target: T1, human α1A-receptors (Homo sapiens, UniProt P35348); assay: Phenylephrine-induced Ca2+ release in CHO cells expressing human α1A-receptors (fluo-4); assay type: cell-based; conditions: 10 µM phenylephrine, 1 mM EGTA buffer
T1 construct: expressed in transfected cells
T1 sequence (P35348 1-466): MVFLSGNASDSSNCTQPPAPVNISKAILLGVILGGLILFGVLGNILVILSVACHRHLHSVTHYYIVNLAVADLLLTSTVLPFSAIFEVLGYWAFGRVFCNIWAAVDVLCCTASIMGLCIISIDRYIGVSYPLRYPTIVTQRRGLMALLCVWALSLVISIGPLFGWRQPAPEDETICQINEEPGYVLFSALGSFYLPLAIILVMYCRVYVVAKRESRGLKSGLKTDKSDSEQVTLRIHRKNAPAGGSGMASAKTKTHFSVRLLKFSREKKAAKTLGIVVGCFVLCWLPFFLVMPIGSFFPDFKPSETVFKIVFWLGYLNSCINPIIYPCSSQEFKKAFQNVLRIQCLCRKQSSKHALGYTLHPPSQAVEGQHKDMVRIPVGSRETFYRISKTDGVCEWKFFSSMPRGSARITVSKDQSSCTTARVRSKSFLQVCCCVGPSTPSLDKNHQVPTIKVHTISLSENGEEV
Description: For measurement of norgestimate effects on adrenoceptor signaling a CHO cell line stably expressing human α1A-receptors (GenBank accession number NM_000680.2) under control of a CMV promoter was used. CHO cells were kept in HAM's F-12 medium (with glutaMAX I) supplemented with 10% (v/v) fetal bovine serum (Biochrom), 1 mM glutamine, and 0.6 mg/ml geneticin.
[Ca^2+]i measurements in CHO cells stably expressing human α1A –receptors were performed essentially as described for HEK-FITR cells. The α1- agonist phenylephrine was used for receptor stimulation.
Supplementary file pone.0035393.s001.tif: Figure S1 Stimulatory effect of norgestimate on α1A- receptor-mediated Ca^2+ signaling in CHO cells. (A) Phenylephrine (Phe) -induced changes of [Ca^2+]i were measured in a stable CHO cell line expressing human α1A-adrenoceptors. Cells loaded with fluo-4 were pre-incubated with or without 30 µM norgestimate (NG) and challenged with 10 µM phenylephrine or control buffer. Representative traces are shown. Fluorometric imaging plate reader [Ca^2+]i measurements were performed essentially as described for HEK-FITR cells (see Materials and Methods) with the exception that the extracellular buffer contained 1 mM EGTA instead of 2 mM Ca^2+. (B) The relative increase in Ca^2+ release induced in the presence of different concentrations of norgestimate is shown. […]

Solubility [1]: limited solubility | Effect on phenylephrine-induced Ca2+ release (human α1A-receptors): significantly stimulated
Compound: C#C[C@]1(OC(C)=O)CC[C@H]2[C@@H]3CCC4=CC(=NO)CC[C@@H]4[C@H]3CC[C@@]21CC (mixture of isomers) [norgestimate]
